Where two headings read alike, the source gives them in different places.
Columns and labels:
[1] = tested on: pERK1,2; assay: Western immunoblotting densitometry, pERK1,2, SKOV-3 cells; assay type: cell-based, human; conditions: 25 μM; for ratio [pERK1+pERK2]/[GAPDH] band intensity: SKOV-3 cells; for ratio [pERK1+pERK2]/[GAPDH] band intensity, single blot (panel A): panel A lower set, cell line not given
[2] = tested on: UWB1.289 cancer cell line; assay: cells; conditions: Homo sapiens, UWB1289, 48 h
[3] = tested on: OVCAR-5 cancer cell line; assay: cells; conditions: Homo sapiens, OVCAR-5, 48 h
[4] = tested on: AKT1,2 phosphorylation; assay: AKT phosphorylation ELISA, UWB1.289 cells; assay type: cell-based, human; conditions: for Vmax ± SE, pAKT 1/2 inhibition: Michaelis Menten model; for IC50: Homo sapiens, read-out: IC50, pAKT 1/2 inhibition
[5] = tested on: AKT1,2 phosphorylation; assay: AKT phosphorylation ELISA, OVCAR-5 cells; assay type: cell-based, human; conditions: for Vmax ± SE, pAKT 1/2 inhibition: Michaelis Menten model; for IC50: Homo sapiens, read-out: IC50, pAKT 1/2 inhibition
[6] = tested on: UWB1.289 cancer cell line
[7] = tested on: ERK1,2 phosphorylation; assay: ERK1/2 phosphorylation ELISA, UWB1.289 cells; assay type: cell-based, human; conditions: for Vmax ± SE, pERK 1/2 inhibition: Michaelis Menten model; for IC50: Homo sapiens, read-out: IC50, pERK 1/2 inhibition
[8] = tested on: SK-OV-3 cancer cell line
[9] = tested on: pAKT; assay: Western immunoblotting densitometry, pAKT, SKOV-3 cells; assay type: cell-based, human; conditions: 25 μM; for ratio [pAKT]/[GAPDH] band intensity: SKOV-3 cells; for ratio [pAKT]/[GAPDH] band intensity, single blot (panel A): panel A lower set, cell line not given, control ratio 0.996
[10] = tested on: OVCAR-3 cancer cell line
[11] = tested on: pERK1,2; assay: Western immunoblotting densitometry, pERK1,2, OVCAR-3 cells; assay type: cell-based, human; conditions: 25 μM; for ratio [pERK1+pERK2]/[GAPDH] band intensity: OVCAR-3 cells; for ratio [pERK1+pERK2]/[GAPDH] band intensity, single blot (panel A): panel A upper set, cell line not given
[12] = tested on: AKT1,2 phosphorylation; assay: AKT phosphorylation ELISA, OVCAR-3 cells; assay type: cell-based, human; conditions: for Vmax ± SE, pAKT 1/2 inhibition: Michaelis Menten model; for IC50: Homo sapiens, read-out: IC50, pAKT 1/2 inhibition
[13] = tested on: UWB1.289+BRCA1 cancer cell line; assay: cells; conditions: Homo sapiens, 48 h
[14] = tested on: OVCAR-5 cancer cell line
[15] = read-out: GI50 (50% Growth Inhibition)
[16] = read-out: IC50 (cytotoxic effect)

C[C@]12CC[C@H]3[C@@H](CCC4=CC(=O)NCC[C@@]43C)[C@@H]1CC[C@@H]2OC(=O)CCOc1ccc(N(CCCl)CCCl)cc1 [ENGA-L06E, 5a,7a-dimethyl-2-oxo-2,3,4,5,5a,5b,6,7,7a,8,9,10,10a,10b,11,12-hexa decahydrocyclopenta [5, 6] naphtho [1,2-d] azepin-8-yl 3-(4-(bis(2-chloroethyl)amino)phenoxy) propanoate]
ratio [pERK1+pERK2]/[GAPDH] band intensity ([1]; 30min, control ratio 1.70): 1.74 | ratio [pERK1+pERK2]/[GAPDH] band intensity ([1]; 1h, control ratio 1.78): 1.35 | ratio [pERK1+pERK2]/[GAPDH] band intensity ([1]; 3h, control ratio 1.74): 0.68 | ratio [pERK1+pERK2]/[GAPDH] band intensity ([1]; 12h, control ratio 1.61): 0.65 | ratio [pERK1+pERK2]/[GAPDH] band intensity, single blot (panel A) ([1]; 1h, control ratio 1.78): 0.99 | ratio [pERK1+pERK2]/[GAPDH] band intensity, single blot (panel A) ([1]; 3h, control ratio 1.78): 0.39 | GI50 [2, 15]: 3.5 ± 0.4 µM | IC50 [2, 16]: 20 ± 1.1 µM | GI50 [3, 15]: 25 ± 1.4 µM | IC50 [3, 16]: 65 ± 3.4 µM | Vmax ± SE, pAKT 1/2 inhibition ([4]; 15 min): 62.12 ± 1.41 | Vmax ± SE, pAKT 1/2 inhibition ([4]; 30 min): 64.94 ± 4.22 | Vmax ± SE, pAKT 1/2 inhibition ([4]; 60 min): 71.12 ± 3.34 | IC50 ([4]; UWB1289, 0.25 h, 15 min): 16.9 µM | IC50 ([4]; UWB1289, 0.5 h, 30 min): 14.4 µM | IC50 ([4]; UWB1289, 1 h, 60 min): 11.8 µM | Vmax ± SE, pAKT 1/2 inhibition ([5]; 15 min): 57.76 ± 3.49 | Vmax ± SE, pAKT 1/2 inhibition ([5]; 30 min): 59.24 ± 0.49 | Vmax ± SE, pAKT 1/2 inhibition ([5]; 60 min): 62.49 ± 0.25 | IC50 ([5]; 0.25 h, 15 min): > 50 µM | IC50 ([5]; 0.5 h, 30 min): 49.8 µM | IC50 ([5]; 1 h, 60 min): 29.5 µM | TGI (Total Growth Inhibition) [6]: 8 ± 0.8 μΜ | Vmax ± SE, pERK 1/2 inhibition ([7]; 15 min): 76.21 ± 2.11 | Vmax ± SE, pERK 1/2 inhibition ([7]; 60 min): 89.63 ± 2.53 | IC50 ([7]; UWB1289, 0.25 h, 15 min): 6.81 µM | IC50 ([7]; UWB1289, 0.5 h, 30 min): 4.12 µM | IC50 ([7]; UWB1289, 1 h, 60 min): 3.53 µM | TGI (Total Growth Inhibition) [8]: 52 ± 3.3 μΜ | ratio [pAKT]/[GAPDH] band intensity ([9]; 15min, control ratio 0.98): 0.94 | ratio [pAKT]/[GAPDH] band intensity ([9]; 30min, control ratio 0.98): 0.78 | ratio [pAKT]/[GAPDH] band intensity ([9]; 1h, control ratio 1.02): 0.73 | ratio [pAKT]/[GAPDH] band intensity ([9]; 3h, control ratio 0.99): 0.65 | ratio [pAKT]/[GAPDH] band intensity ([9]; 12h, control ratio 0.94): 0.58 | ratio [pAKT]/[GAPDH] band intensity, single blot (panel A) ([9]; 1h): 0.40 | ratio [pAKT]/[GAPDH] band intensity, single blot (panel A) ([9]; 3h): 0.20 | TGI (Total Growth Inhibition) [10]: 32 ± 1.8 μΜ | ratio [pERK1+pERK2]/[GAPDH] band intensity ([11]; 30min, control ratio 1.71): 1.40 | ratio [pERK1+pERK2]/[GAPDH] band intensity ([11]; 1h, control ratio 1.65): 0.96 | ratio [pERK1+pERK2]/[GAPDH] band intensity ([11]; 3h, control ratio 1.99): 1.11 | ratio [pERK1+pERK2]/[GAPDH] band intensity ([11]; 6h, control ratio 1.85): 0.54 | ratio [pERK1+pERK2]/[GAPDH] band intensity ([11]; 12h, control ratio 1.82): 0.49 | ratio [pERK1+pERK2]/[GAPDH] band intensity ([11]; 24h, control ratio 1.92): 0.58 | ratio [pERK1+pERK2]/[GAPDH] band intensity, single blot (panel A) ([11]; 1h, control ratio 1.85): 0.74 | ratio [pERK1+pERK2]/[GAPDH] band intensity, single blot (panel A) ([11]; 3h, control ratio 1.85): 1.02 | Vmax ± SE, pAKT 1/2 inhibition ([12]; 15 min): 57.71 ± 5.51 | Vmax ± SE, pAKT 1/2 inhibition ([12]; 30 min): 60.76 ± 2.97 | Vmax ± SE, pAKT 1/2 inhibition ([12]; 60 min): 62.20 ± 5.12 | IC50 ([12]; 0.25 h, 15 min): 29.1 µM | IC50 ([12]; 0.5 h, 30 min): 24.4 µM | IC50 ([12]; 1 h, 60 min): 18.3 µM | GI50 [13, 15]: 12 ± 0.7 µM | IC50 [13, 16]: 40 ± 3.5 µM | TGI (Total Growth Inhibition) [14]: 42 ± 2.8 μΜ
